According to article PMC6556873, “Rapid Covalent-Probe Discovery by Electrophile-Fragment Screening” (Journal of the American Chemical Society, 2019):
Like-named read-outs stand apart in the source and are kept apart here.

Columns and labels:
in vitro [1] = assay: in vitro; design: species or system HB2, HEK293; conditions: human, ccd841 cells
in vitro [2] = assay: in vitro; design: species or system CCD841, HEK293; conditions: human, hb2 cells, read-out: HB-2 Cells Viability (%)
NUDT7 = biological target: T1, NUDT7 (Homo sapiens, UniProt P0C024); design: Intact protein LC/MS covalent labelling, fragments in pools of five, 200 uM each, 4 °C; conditions: 24 h, 4 °C, pool of five; 200 µM; covalent
T1 construct: residues 14-235, E. coli, pNIC28-Bsa4, N-terminal His6 tag removed by TEV, construct 26672 Da

OTUB2 (OTUB2A) = biological target: T2, OTUB2 (OTUB2A) (Homo sapiens, UniProt Q96DC9); design: Intact protein LC/MS covalent labelling, fragments in pools of five, 200 uM each, 4 °C; conditions: 24 h, 4 °C, pool of five; 200 µM; covalent
T2 construct: full length residues 1-234, E. coli BL21(DE3)-R3, His tag removed by TEV, construct 27312 Da
T2 sequence (Q96DC9 1-234): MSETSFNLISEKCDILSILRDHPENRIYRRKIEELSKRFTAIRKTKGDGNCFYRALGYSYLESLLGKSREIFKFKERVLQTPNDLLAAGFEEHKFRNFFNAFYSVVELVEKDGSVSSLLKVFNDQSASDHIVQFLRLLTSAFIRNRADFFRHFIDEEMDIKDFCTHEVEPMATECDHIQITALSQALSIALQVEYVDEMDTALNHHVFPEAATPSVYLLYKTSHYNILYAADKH

BSA = biological target: T3, BSA (Bos taurus, UniProt P02769); design: Intact protein LC/MS covalent labelling, fragments in pools of five, 200 uM each, 4 °C; conditions: 24 h, 4 °C, pool of five; 200 µM; covalent
T3 construct: gene ALB

PCAF = biological target: T4, PCAF (Homo sapiens, UniProt Q92831); design: Intact protein LC/MS covalent labelling, fragments in pools of five, 200 uM each, 4 °C; conditions: 24 h, 4 °C, pool of five; 200 µM; covalent
T4 construct: gene KAT2B

in vitro [3] = assay: in vitro; design: species or system HB2, CCD841; conditions: human, hek293 cells

T4 sequence (Q92831 whole entry, the tested form may be a part): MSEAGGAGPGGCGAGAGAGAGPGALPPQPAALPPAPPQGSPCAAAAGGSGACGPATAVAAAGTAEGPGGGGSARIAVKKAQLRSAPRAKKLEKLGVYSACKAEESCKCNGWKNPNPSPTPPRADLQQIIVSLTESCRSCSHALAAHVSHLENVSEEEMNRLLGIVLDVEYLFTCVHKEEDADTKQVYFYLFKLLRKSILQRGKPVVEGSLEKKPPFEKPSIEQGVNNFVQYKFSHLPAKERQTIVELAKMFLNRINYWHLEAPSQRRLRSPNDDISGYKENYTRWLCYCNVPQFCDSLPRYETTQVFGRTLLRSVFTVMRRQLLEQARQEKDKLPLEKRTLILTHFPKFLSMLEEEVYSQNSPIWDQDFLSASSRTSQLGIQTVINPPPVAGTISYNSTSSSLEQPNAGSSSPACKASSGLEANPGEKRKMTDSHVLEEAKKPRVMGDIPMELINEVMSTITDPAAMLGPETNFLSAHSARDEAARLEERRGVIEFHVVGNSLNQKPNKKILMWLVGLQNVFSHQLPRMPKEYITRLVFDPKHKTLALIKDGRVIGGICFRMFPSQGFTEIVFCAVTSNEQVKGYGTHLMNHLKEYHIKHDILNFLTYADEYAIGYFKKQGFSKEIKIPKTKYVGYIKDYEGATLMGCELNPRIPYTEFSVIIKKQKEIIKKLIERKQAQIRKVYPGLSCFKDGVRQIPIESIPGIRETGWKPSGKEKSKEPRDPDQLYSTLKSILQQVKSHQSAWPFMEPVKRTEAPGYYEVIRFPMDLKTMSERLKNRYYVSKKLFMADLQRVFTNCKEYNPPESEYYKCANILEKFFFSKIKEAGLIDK
T1 sequence (P0C024 14-235): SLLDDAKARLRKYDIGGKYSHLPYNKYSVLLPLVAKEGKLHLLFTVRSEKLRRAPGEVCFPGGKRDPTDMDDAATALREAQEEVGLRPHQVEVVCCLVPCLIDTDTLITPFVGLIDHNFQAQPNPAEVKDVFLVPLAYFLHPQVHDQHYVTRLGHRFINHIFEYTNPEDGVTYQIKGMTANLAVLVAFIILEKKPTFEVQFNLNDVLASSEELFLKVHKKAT
T3 sequence (P02769 whole entry, the tested form may be a part): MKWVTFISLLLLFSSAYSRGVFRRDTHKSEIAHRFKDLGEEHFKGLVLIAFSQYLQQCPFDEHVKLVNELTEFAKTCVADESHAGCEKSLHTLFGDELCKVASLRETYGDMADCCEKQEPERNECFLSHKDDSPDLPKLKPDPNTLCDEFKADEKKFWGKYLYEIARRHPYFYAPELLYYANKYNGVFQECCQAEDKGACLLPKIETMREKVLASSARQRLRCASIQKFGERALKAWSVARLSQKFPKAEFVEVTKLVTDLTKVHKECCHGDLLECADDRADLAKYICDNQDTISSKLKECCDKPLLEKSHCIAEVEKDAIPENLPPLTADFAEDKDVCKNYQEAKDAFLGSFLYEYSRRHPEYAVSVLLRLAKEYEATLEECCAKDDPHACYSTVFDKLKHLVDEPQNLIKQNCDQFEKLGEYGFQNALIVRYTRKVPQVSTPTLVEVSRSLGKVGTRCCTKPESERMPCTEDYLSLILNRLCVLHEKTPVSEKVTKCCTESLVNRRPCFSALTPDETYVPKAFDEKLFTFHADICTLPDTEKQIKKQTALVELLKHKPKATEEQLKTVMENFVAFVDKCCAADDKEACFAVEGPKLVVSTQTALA

NUDT7 (NUDT7)	OTUB2 (OTUB2 (OTUB2A))	BSA (BSA)	PCAF (PCAF)	Structure (SMILES)	viability at 48 h, 10 µM (in vitro [1])	viability at 48 h, 10 µM (in vitro [2])	viability at 48 h, 10 µM (in vitro [3])
0	0	0	0	O=C(CCl)N1CCc2cc(S(=O)(=O)N3CCCCC3)ccc21 [PCM-0102705]	28.8%	4.2%	51.1%
0.13	0	0	0	Cc1ccc(-c2nnc(C)[nH]2)c(NC(=O)CCl)c1 [PCM-0102775]	45%	61.1%	53%
0.34	0	0	0	CN(C(=O)CCl)c1nc2ccccc2s1 [PCM-0102894]	83.6%	88.4%	87.7%
0	0.22	0	0	CCCNC(=O)NC(=O)CCl [PCM-0102702]	91.6%	91.6%	82.9%
0.12	0.28	0	0	CC(NC(=O)CCl)c1ccc2c(c1)OCO2 (centres unmarked) [PCM-0103030]	102%	89.2%	78.2%
0	0	0	0	O=C(CCl)NC(=O)NC1CCCC1 [PCM-0103001]	80.2%	66.4%	66.7%
0.11	0.75	0.19	0	Cc1ccc(CNC(=O)CCl)s1 [PCM-0102973]	90.8%	98%	106%
0.16	0	0	0	Cc1csc(NC(=O)CCl)n1.Cl [PCM-0102872]	94.9%	90.4%	91.9%
0	0	0	0	C=CC(=O)N1CCC(n2cccn2)CC1 [PCM-0102555]	104%	102%	109%
0.08	0.18	0	0	C=CC(=O)Nc1cccc(Br)c1 [PCM-0102667]	89.4%	97.1%	86.4%
0	0.2	0.13	0	CC(C)(C)OC(=O)N1CCCC(CNC(=O)CCl)C1 (centres unmarked) [PCM-0102923]	91%	99.5%	92.2%
0	0	0	0	C=CC(=O)Nc1ccccc1C(F)(F)F [PCM-0102581]	121%	108%	123%

The next lines start with the molecule.

Structure (SMILES)	NUDT7 (NUDT7)	OTUB2 (OTUB2 (OTUB2A))	BSA (BSA)	PCAF (PCAF)	viability at 48 h, 10 µM (in vitro [1])	viability at 48 h, 10 µM (in vitro [2])	viability at 48 h, 10 µM (in vitro [3])
O=C(CCl)N1CCN(S(=O)(=O)c2ccc(Cl)s2)CC1 [PCM-0102121]	0.15	0	0	0	20.6%	1.7%	2%
COc1cccc(NC(=O)CCl)c1 [PCM-0102410]	0	0	0.21	0	63.5%	34.1%	7.5%
O=C(CCl)N1CCSc2ccccc21 [PCM-0102415]	0.1	0.16	0	0	60.6%	30.2%	22.4%
Cc1ccc(NC(=O)CCl)cc1S(N)(=O)=O [PCM-0102177]	0.1	0.27	0	0	28.2%	8.9%	1.4%
COc1ccc(NC(=O)CCl)cn1 [PCM-0102140]	0	0	0	0	63.7%	62%	44.3%
O=C(CCl)NC(=O)Nc1ccc2c(c1)OCO2 [PCM-0102333]	0.29	0.53	0	0	98.4%	83.2%	82.6%
C=CC(=O)N1CCCN(C(=O)C2CCCO2)CC1 (centres unmarked) [PCM-0102519]	0	0	0	0	108%	98.2%	95.5%
C=CC(=O)N1CCN(c2ccnc(-c3ccccc3)n2)CC1 [PCM-0102515]	0	0	0	0	105%	88.8%	73%
CC1(NC(=O)CCl)CCS(=O)(=O)C1 (centres unmarked) [PCM-0102230]	0	0	0	0	92.7%	105%	92.6%
O=C(CCl)Nc1ccc(Cl)cc1 [PCM-0102120]	0.18	0.23	0	0	55.2%	16.7%	2.7%
O=C(CCl)NC1CCCCNC1=O (centres unmarked) [PCM-0102109]	0	0	0	0	103%	94.1%	109%
CC(=O)c1cccc(N2Cc3ccccc3C2=NC(=O)CCl)c1 [PCM-0102283]	0	0	0	0	99.5%	99.6%	75%
C=CC(=O)N1CCN(C(=O)OCC(C)C)CC1 [PCM-0102449]	0	0	0	0	80.1%	103%	76.6%
CC(=O)Nc1cccc(NC(=O)CCl)c1 [PCM-0102172]	0	0	0	0	53.4%	35.9%	4.7%
O=C(CCl)N1CCN(S(=O)(=O)c2ccc(F)c(F)c2)CC1 [PCM-0102361]	0	0	0	0	48.1%	2.5%	5.4%
Cc1ccc(C)c(NC(=O)CCl)c1 [PCM-0102398]	0	0	0	0	62.3%	59.4%	51.5%
O=C(CCl)N1CCN(c2ncc(C(F)(F)F)cc2Cl)CC1 [PCM-0102378]	0.14	0.05	0	0	2.9%	1.8%	1.8%
Cc1ccc(CN(C)C(=O)CCl)c(C)c1 [PCM-0102552]	0.19	0	0	0	69.9%	54.5%	62.6%
C=CC(=O)N1CCOC2(CCc3ccccc32)C1 (centres unmarked) [PCM-0102439]	0	0	0	0	105%	99.3%	92.3%
O=C(CCl)N1CCN(S(=O)(=O)c2ccc(F)cc2)CC1 [PCM-0102237]	0.06	0	0	0	77%	78.8%	66.9%
